The results in this text go back to patent US7928098B2, “Therapeutic and/or preventive agents for a sleep disorder” (Kyowa Hakko Kirin Co., Ltd., priority 2005, dated 2011).

Take `COC1CCN(CC(=O)Nc2nc(-c3ccco3)c(C(=O)c3ccccn3)s2)CC1.Cl`: the melting point (usually the temperature of the solid-liquid transition) was 220 to 232 °C (dec.).
Compound `CCN(CC)C(=O)C1CCCN(CC(=O)Nc2nc(-c3ccco3)c(C(=O)c3ccccn3)s2)C1.Cl` (stereo not shown) came in with a melting point of 180 to 185 °C.
Turning to `CN1CCN(CC(=O)Nc2nc(-c3ccco3)c(C(=O)c3ccccn3)s2)CC1=O.Cl`, the melting point was 170 to 188 °C.
As for `Cn1c(-c2sc(NC(=O)c3ccccc3)nc2-c2ccco2)cc2ccccc21` [Compound 36, N-[4-(2-Furyl)-5-(1-methylindol-2-yl)thiazol-2-yl]benzamide], the figure is 195 to 196 °C; as for `Cn1ccc(-c2sc(NC(=O)c3ccncc3)nc2-c2ccco2)cc1=O` [Compound 37, N-[4-(2-Furyl)-5-(1-methyl-2-oxo-1,2-dihydropyridin-4-yl)thiazol-2-yl]pyridine-4-carboxamide], 280 to 282 °C.
Compound `Cn1cc(-c2sc(NC(=O)c3ccncc3)nc2-c2ccco2)ccc1=O` [Compound 38, N-[4-(2-Furyl)-5-(1-methyl-2-oxo-1,2-dihydropyridin-5-yl)thiazol-2-yl]pyridine-4-carboxamide] returned a melting point of 294 to 295 °C.
In turn, `CC(C)n1nc(-c2sc(NC(=O)c3ccncc3)nc2-c2ccco2)ccc1=O` [Compound 39, N-[4-(2-Furyl)-5-(1-isopropyl-6-oxo-1,6-dihydropyridazin-3-yl)thiazol-2-yl]pyridine-4-carboxamide] came in with a melting point of 190 to 194 °C.
As to `CC(C)(O)C(=O)Nc1nc(-c2ccco2)c(C(=O)c2ccccc2)s1` [Compound 45, N-[5-Benzoyl-4-(2-furyl)thiazol-2-yl]-2-hydroxy-2-methylpropanamide], the melting point was in the range of 153 to 154 °C.
As for `CN(C)Cc1cc(C(=O)Nc2nc(-c3ccco3)c(C(=O)c3ccccc3)s2)ccn1` [Compound 49, N-[5-Benzoyl-4-(2-furyl)thiazol-2-yl]-2-(dimethylaminomethyl)pyridine-4-carboxamide], the figure is 205 to 209 °C; as for `O=C(Nc1nc(-c2ccco2)c(C(=O)c2ccccc2)s1)c1ccnc(CN2CCOCC2)c1` [Compound 52, N-[5-Benzoyl-4-(2-furyl)thiazol-2-yl]-2-(morpholinomethyl)pyridine-4-carboxamide], 212 to 213 °C; as for `COCCN(C)c1cc(C(=O)Nc2nc(-c3ccco3)c(C(=O)c3ccccc3)s2)ccn1` [Compound 53, N-[5-Benzoyl-4-(2-furyl)thiazol-2-yl]-2-[N-(2-methoxyethyl)-N-methylamino]pyridine-4-carboxamide], 145 to 147 °C.
For the compound `Cn1cc(C(=O)Nc2nc(-c3ccco3)c(C(=O)c3ccccc3)s2)ccc1=O` [Compound 58, N-[5-Benzoyl-4-(2-furyl)thiazol-2-yl]-1-methyl-2-oxo-1,2-dihydropyridine-5-carboxamide], the melting point fell in the range of 220 to 225 °C.
For the compound `CCn1cc(C(=O)Nc2nc(-c3ccco3)c(C(=O)c3ccccc3)s2)ccc1=O` [Compound 59, N-[5-Benzoyl-4-(2-furyl)thiazol-2-yl]-1-ethyl-2-oxo-1,2-dihydropyridine-5-carboxamide], the melting point lay within 109 to 114 °C.
Take `O=C(Nc1nc(-c2ccco2)c(C(=O)c2ccccc2)s1)c1ccc(=O)n(Cc2ccncc2)c1` [Compound 60, N-[5-Benzoyl-4-(2-furyl)thiazol-2-yl]-2-oxo-1-(pyridin-4-ylmethyl)-1,2-dihydropyridine-5-carboxamide]: the melting point lay within 270 to 275 °C.
As to `O=C(Nc1nc(-c2ccco2)c(C(=O)c2ccccc2)s1)c1ccnnc1` [Compound 61, N-[5-Benzoyl-4-(2-furyl)thiazol-2-yl]pyridazine-4-carboxamide], the melting point was 225 to 248 °C.
In turn, `CC(=O)Nc1nc(-c2ccco2)c(C(=O)c2ccccn2)s1` [Compound 96, N-[4-(2-Furyl)-5-(pyridin-2-ylcarbonyl)thiazol-2-yl]-acetamide] came in with a melting point of 216 to 217 °C.
For the compound `CCCC(=O)Nc1nc(-c2ccco2)c(C(=O)c2ccccn2)s1` [Compound 97, N-[4-(2-Furyl)-5-(pyridin-2-ylcarbonyl)thiazol-2-yl]-butanamide], the melting point lay within 148 to 149 °C.
`CC(C)(C)C(=O)Nc1nc(-c2ccco2)c(C(=O)c2ccccn2)s1` [Compound 98, N-[4-(2-Furyl)-5-(pyridin-2-ylcarbonyl)thiazol-2-yl]-2,2-dimethylpropanamide] yielded a melting point of 186 to 187 °C.
With `CC1(C(=O)Nc2nc(-c3ccco3)c(C(=O)c3ccccn3)s2)CC1` [Compound 100, N-[4-(2-Furyl)-5-(pyridin-2-ylcarbonyl)thiazol-2-yl]-1-methylcyclopropanecarboxamide], the melting point was 195 to 196 °C.
`O=C(c1ccccn1)c1sc(NC(=O)C2CCC2)nc1-c1ccco1` [Compound 101, N-[4-(2-Furyl)-5-(pyridin-2-ylcarbonyl)thiazol-2-yl]cyclobutanecarboxamide] had a melting point of 165 to 170 °C.
As for `O=C(c1ccccn1)c1sc(NC(=O)C2CCOCC2)nc1-c1ccco1` [Compound 102, N-[4-(2-Furyl)-5-(pyridin-2-ylcarbonyl)thiazol-2-yl]tetrahydropyran-4-carboxamide], the figure is 234 to 235 °C; as for `O=C(c1ccccn1)c1sc(NC(=O)C2CCN(Cc3cccnc3)CC2)nc1-c1ccco1` [Compound 105, N-[4-(2-Furyl)-5-(pyridin-2-ylcarbonyl)thiazol-2-yl]-1-(pyridin-3-ylmethyl)piperidine-4-carboxamide], 208 to 209 °C.
For `O=C(c1ccccn1)c1sc(NC(=O)C2CCN(Cc3ccncc3)CC2)nc1-c1ccco1` [Compound 106, N-[4-(2-Furyl)-5-(pyridin-2-ylcarbonyl)thiazol-2-yl]-1-(pyridin-4-ylmethyl)piperidine-4-carboxamide], the melting point lay in the range of 240 to 241 °C.
For `O=C(Nc1nc(-c2ccco2)c(C(=O)c2ccccn2)s1)c1ccccc1` [Compound 107, N-[4-(2-Furyl)-5-(pyridin-2-ylcarbonyl)thiazol-2-yl]-benzamide], the melting point lay within 165 to 171 °C.
With `COc1ccccc1C(=O)Nc1nc(-c2ccco2)c(C(=O)c2ccccn2)s1` [Compound 108, N-[4-(2-Furyl)-5-(pyridin-2-ylcarbonyl)thiazol-2-yl]-2-methoxybenzamide], the melting point fell in the range of 205 to 208 °C.
As for `COc1cccc(C(=O)Nc2nc(-c3ccco3)c(C(=O)c3ccccn3)s2)c1` [Compound 109, N-[4-(2-Furyl)-5-(pyridin-2-ylcarbonyl)thiazol-2-yl]-3-methoxybenzamide], the figure is 165 to 166 °C.
Regarding `COc1ccc(C(=O)Nc2nc(-c3ccco3)c(C(=O)c3ccccn3)s2)cc1` [Compound 110, N-[4-(2-Furyl)-5-(pyridin-2-ylcarbonyl)thiazol-2-yl]-4-methoxybenzamide], the melting point was in the range of 187 to 188 °C.
The compound `COc1ccc(C(=O)Nc2nc(-c3ccco3)c(C(=O)c3ccccn3)s2)cc1OC` [Compound 111, N-[4-(2-Furyl)-5-(pyridin-2-ylcarbonyl)thiazol-2-yl]-3,4-dimethoxybenzamide] yielded a melting point of 169 to 170 °C.
